{
  "source": "patent EP4638411B1",
  "about": "“PLASTICIZER” (priority 2022, dated 2024)",
  "key": {"[1]": {"experiment": "Refractive index nD20 (DIN 51423-2)", "assay_type": "physicochemical", "from_the_text": "(§1) Die nachfolgende Tabelle 3 gibt die Eigenschaften der wie oben beschriebenen Verbindungen wieder. Tabelle 3."}, "[2]": {"experiment": "Acid number (DIN EN ISO 2114)", "assay_type": "physicochemical", "from_the_text": "as §1"}, "[3]": {"experiment": "Density at 20 °C (DIN 51757 method 4)", "assay_type": "physicochemical", "conditions": "DIN 51757 Verf. 4", "from_the_text": "as §1"}, "[4]": {"experiment": "Viscosity at 20 °C (DIN 51562-1)", "assay_type": "physicochemical", "from_the_text": "as §1"}, "[5]": {"experiment": "Dissolution (gelling) temperature of PVC in plasticizer, plate/plate rheometer, temperature at viscosity maximum", "assay_type": "physicochemical", "conditions": "5 phr PVC, 95 phr plasticizer, 2 phr Ba-Zn stabilizer; 5 °C/min; mean of four measurements", "from_the_text": "Anwendungstechnische Prüfungen: II.a) Bestimmung der Lösetemperatur der offenbarungsgemäßen Weichmacher-Zusammensetzungen: Zur Bestimmung der Lösetemperatur der offenbarungsgemäßen Weichmacher-Zusammensetzungen wurden etwa 10 Gramm einer Mischungen nach folgender Rezeptur (siehe Tabelle 4) hergestellt. Die Mischung wird mit einer Pipette aufgerührt und dann sofort ca. 30 Tropfen der homogenen Mischung auf das Platte-Platte-Messsystem gegeben. Tabelle 4.\nDie Viskositätsmessungen wurden mit einem beheizbaren Oszillations- und Rotations-Rheometer MCR 302 von Anton Paar in einem Rotationsversuch durchgeführt.\nDie Messung erfolgte in zwei Rampen. Die erste Rampe für die Dauer von 120 s bei D=10 (1/s) und 30 °C dient zum Temperieren der Probe. Die zweite Rampe bei D=10 (1/s) und kontinuierlicher Temperatursteigerung von 5 °C min ist dann die eigentliche Messung. Der Abbruch erfolgte manuell, nachdem das Viskositätsmaximum überschritten war. Als Ergebnis der Messung wird die Temperatur ermittelt, bei der das Maximum der Viskosität erreicht ist. Diese Messungen werden insgesamt viermal durchgeführt und der arithmetische Mittelwert aller vier Messungen als das Endergebnis gewertet. Il.b) Herstellung und Prüfung von Weich-PVC-Folien hergestellt unter Einsatz erfindungsgemäßer Weichmacher-Zusammensetzungen"}, "[6]": {"experiment": "HCl residual stability of plasticized PVC films at 200 °C", "conditions": "PVC film, 60 phr plasticizer", "from_the_text": "Rezeptur: siehe nachfolgende Tabelle 5. Tabelle 5.\n150 g PVC (Homopolymeres Suspensions-PVC, Markenname Inovyn® 271 PC); 90 g Weichmacher-Zusammensetzung und 3 g Ba/Zn-Stabilisator, Markenname Baerostab® UBZ 760 XLP RF wurden mit einem Handmixer bei Raumtemperatur vermischt. Die Mischung wurde anschließend auf einem ölbeheizten Labormischwalzwerk (Fa. Collin, Automatikwalzwerk Typ W250M, Durchmesser: 252 mm, Breite: 450 mm) plastifiziert und zu einem Walzfell verarbeitet. Die Temperatur der beiden Walzen betrug jeweils 180 °C; die Drehzahlen lagen bei 15 Umdrehungen/min. (vordere Walze) und 12 Umdrehungen/min. (hintere Walze); die Walzzeit betrug 5 Minuten. Der Walzenspalt wurde auf 0,5 mm eingestellt. Man erhielt so ein Walzfell mit einer Dicke von 0,53 mm. Das abgekühlte Walzfell wurde anschließend bei einer Temperatur von 190 °C und einem Druck von 150 bar innerhalb von 180 s auf einer Presse vom Typ \"Laborplattenpresse 400 P\" der Fa. Collin zu einer Weich-PVC-Folie mit einer Dicke von 0,50 mm verpresst. Unter Beibehaltung des Pressdrucks wurde die Pressfolie innerhalb von 10 Minuten auf ca. 40 °C abgekühlt.\nDie Bestimmung der HCl-Reststabilität erfolgt nach DIN EN 60811-405 (VDE 0473-811-405): Als Prüfgerät wird ein Metallblock-Thermostat von Liebisch Labortechnik bei einer Prüftemperatur von 200 °C verwendet. Es wird immer eine 3-fach Bestimmung vorgenommen. Ca. 50 mg der Walzfolien werden abgewogen, auf 3 cm Länge zugeschnitten und im unteren Teil des Glasröhrchens positioniert. Am oberen Ende des Glasröhrchens wird ein ca. 10 mm langer Indikatorpapierstreifen (Lackmusspapier) so positioniert, dass ca. 2 mm herausstehen. Die so präparierten Glasröhrchen werden in den Metallblock positioniert und die Zeit notiert, bis ein Farbumschlag in Richtung Rot auftritt. Aus den drei Messwerten der drei Proben wird der arithmetische Mittelwert gebildet."}, "[7]": {"experiment": "Water content (DIN 51777-1)", "assay_type": "physicochemical", "from_the_text": "as §1"}},
  "data": [
    {"molecule": "4-Oxoheptandisäure-di-isotridecylester [Verbindung I.6]", "values": [
      {"measurement": "Brechzahl, n^D20", "setting": "[1]", "result": "1,4605"},
      {"measurement": "Säurezahl", "setting": "[2]", "result": "0,31 mg KOH/g"},
      {"measurement": "Dichte, 20 °C", "setting": "[3]", "result": "0,9365 g/cm^3"},
      {"measurement": "Viskosität, 20 °C", "setting": "[4]", "result": 101, "unit": "mPa·s"},
      {"measurement": "Lösetemperatur", "setting": "[5]", "result": 162, "unit": "°C"},
      {"measurement": "HCl-Reststabilität", "setting": "[6]", "result": 12, "unit": "min"},
      {"measurement": "Wassergehalt", "setting": "[7]", "result": "0,016 Gew.-%"}
    ]},
    {"molecule": "CC(C)CCCC(C)CCOC(=O)CCC(=O)CCC(=O)OCCC(C)CCCC(C)C", "note": "(stereo not shown) [Verbindung I.2, 4-Oxoheptandisäure-di-(3,7-dimethyloctylester)]", "values": [
      {"measurement": "Brechzahl, n^D20", "setting": "[1]", "result": "1,5160"},
      {"measurement": "Säurezahl", "setting": "[2]", "result": "0,26 mg KOH/g"},
      {"measurement": "Dichte, 20 °C", "setting": "[3]", "result": "0,9456 g/cm^3"},
      {"measurement": "Viskosität, 20 °C", "setting": "[4]", "result": 52, "unit": "mPa·s"},
      {"measurement": "Lösetemperatur", "setting": "[5]", "result": 147, "unit": "°C"},
      {"measurement": "HCl-Reststabilität", "setting": "[6]", "result": "13,4 min"},
      {"measurement": "Wassergehalt", "setting": "[7]", "result": "0,013 Gew.-%"}
    ]},
    {"molecule": "CCCCC(CC)COC(=O)CCC(=O)CCC(=O)OCC(CC)CCCC", "note": "(stereo not shown) [4-Oxoheptandisäure-di-(2-ethylhexylester), reference compound]", "values": [
      {"measurement": "Brechzahl, n^D20", "setting": "[1]", "result": "1,4534"},
      {"measurement": "Säurezahl", "setting": "[2]", "result": "1,5 mg KOH/g"},
      {"measurement": "Dichte, 20 °C", "setting": "[3]", "result": "0,9661 g/cm^3"},
      {"measurement": "Viskosität, 20 °C", "setting": "[4]", "result": 32, "unit": "mPa·s"},
      {"measurement": "Lösetemperatur", "setting": "[5]", "result": 127, "unit": "°C"},
      {"measurement": "HCl-Reststabilität", "setting": "[6]", "result": "11,1 min"},
      {"measurement": "Wassergehalt", "setting": "[7]", "result": "0,07 Gew.-%"}
    ]},
    {"molecule": "CCCCCC(CCC)COC(=O)CCC(=O)CCC(=O)OCC(CCC)CCCCC", "note": "(stereo not shown) [Verbindung I.1, 4-Oxoheptandisäure-di-(2-propylheptylester)]", "values": [
      {"measurement": "Brechzahl, n^D20", "setting": "[1]", "result": "1,4553"},
      {"measurement": "Säurezahl", "setting": "[2]", "result": "1,1 mg KOH/g"},
      {"measurement": "Dichte, 20 °C", "setting": "[3]", "result": "0,9473 g/cm^3"},
      {"measurement": "Viskosität, 20 °C", "setting": "[4]", "result": 51, "unit": "mPa·s"},
      {"measurement": "Lösetemperatur", "setting": "[5]", "result": 139, "unit": "°C"},
      {"measurement": "HCl-Reststabilität", "setting": "[6]", "result": 15, "unit": "min"},
      {"measurement": "Wassergehalt", "setting": "[7]", "result": "0,003 Gew.-%"}
    ]}
  ]
}
